{"source": "paper PMC4279175", "about": "“Mechanisms Underlying the Antinociceptive, Antiedematogenic, and Anti-Inflammatory Activity of the Main Flavonoid from Kalanchoe pinnata” (Evidence-based Complementary and Alternative Medicine : eCAM, 2014)", "key": {"COX-2": {"biological_target": "T1, COX-2 (Ovis aries, UniProt P79208)", "T1 construct": "gene PTGS2", "T1 sequence (P79208 17-603)": "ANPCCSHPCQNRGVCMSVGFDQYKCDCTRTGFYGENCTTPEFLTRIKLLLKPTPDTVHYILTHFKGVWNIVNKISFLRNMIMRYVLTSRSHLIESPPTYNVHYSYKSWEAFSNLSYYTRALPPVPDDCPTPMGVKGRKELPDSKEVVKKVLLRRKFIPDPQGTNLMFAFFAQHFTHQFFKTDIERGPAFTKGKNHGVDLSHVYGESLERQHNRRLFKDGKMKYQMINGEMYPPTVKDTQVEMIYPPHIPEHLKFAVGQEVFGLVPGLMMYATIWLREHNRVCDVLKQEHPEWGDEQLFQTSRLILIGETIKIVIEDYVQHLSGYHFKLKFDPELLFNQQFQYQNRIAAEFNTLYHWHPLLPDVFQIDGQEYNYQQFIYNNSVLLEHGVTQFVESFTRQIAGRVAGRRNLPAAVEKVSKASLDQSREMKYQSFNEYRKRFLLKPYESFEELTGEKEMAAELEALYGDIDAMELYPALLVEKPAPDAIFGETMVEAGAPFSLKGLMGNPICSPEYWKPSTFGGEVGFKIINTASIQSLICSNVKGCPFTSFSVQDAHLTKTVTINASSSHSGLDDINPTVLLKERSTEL", "experiment": "colorimetric COX (ovine) inhibitor screening assay kit (Cayman […]); […] maximum inhibition at […]", "format": "biochemical"}, "COX-1": {"biological_target": "T2, COX-1 (Ovis aries, UniProt P05979)", "T2 construct": "gene PTGS1", "T2 sequence (P05979 25-600)": "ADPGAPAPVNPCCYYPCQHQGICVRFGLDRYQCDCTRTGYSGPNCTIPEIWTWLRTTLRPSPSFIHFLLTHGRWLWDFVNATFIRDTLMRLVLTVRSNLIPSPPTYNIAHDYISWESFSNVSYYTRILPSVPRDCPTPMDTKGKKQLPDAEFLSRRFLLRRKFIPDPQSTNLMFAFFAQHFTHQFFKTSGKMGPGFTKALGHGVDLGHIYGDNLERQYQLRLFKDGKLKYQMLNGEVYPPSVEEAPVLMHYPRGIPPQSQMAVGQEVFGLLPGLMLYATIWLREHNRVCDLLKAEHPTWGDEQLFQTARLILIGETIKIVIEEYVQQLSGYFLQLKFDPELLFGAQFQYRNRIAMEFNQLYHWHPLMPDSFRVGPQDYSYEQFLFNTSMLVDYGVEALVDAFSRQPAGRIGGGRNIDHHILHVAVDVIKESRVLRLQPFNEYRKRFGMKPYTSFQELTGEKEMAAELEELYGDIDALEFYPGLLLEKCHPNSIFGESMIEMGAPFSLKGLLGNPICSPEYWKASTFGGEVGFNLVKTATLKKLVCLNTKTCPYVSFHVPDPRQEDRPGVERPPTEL", "experiment": "colorimetric COX (ovine) inhibitor screening assay kit (Cayman […])", "format": "biochemical"}}}
{"smiles": "C[C@@H]1O[C@@H](Oc2c(-c3ccc(O)c(O)c3)oc3cc(O)cc(O)c3c2=O)[C@H](O[C@@H]2OC[C@H](O)[C@H](O)[C@H]2O)[C@H](O)[C@H]1O", "note": "[KPFV, quercetin 3-O-α-L-arabinopyranosyl (1 → 2) α-L-rhamnopyranoside]", "values": [{"measurement": "IC50", "setting": "COX-2", "result": "> 84", "unit": "µM"}, {"measurement": "IC50", "setting": "COX-1", "result": 38, "unit": "µM"}]}
